PMC8343220, “The selectivity of α‐adrenoceptor agonists for the human α1A, α1B, and α1D‐adrenoceptors” (Pharmacology Research & Perspectives, 2021)
Like-named read-outs stand apart in the source and are kept apart here. Marks after values point to notes of the source that are not given here.

How the values were obtained:
[1] = target: T1, human α1A‐adrenoceptor (Homo sapiens, UniProt P35348); assay: ^3H‐prazosin whole‐cell radioligand binding, CHO‐α1A cells
T1 construct: expressed in transfected cells; host or cells: CHO-K1
T1 sequence (P35348 1-466): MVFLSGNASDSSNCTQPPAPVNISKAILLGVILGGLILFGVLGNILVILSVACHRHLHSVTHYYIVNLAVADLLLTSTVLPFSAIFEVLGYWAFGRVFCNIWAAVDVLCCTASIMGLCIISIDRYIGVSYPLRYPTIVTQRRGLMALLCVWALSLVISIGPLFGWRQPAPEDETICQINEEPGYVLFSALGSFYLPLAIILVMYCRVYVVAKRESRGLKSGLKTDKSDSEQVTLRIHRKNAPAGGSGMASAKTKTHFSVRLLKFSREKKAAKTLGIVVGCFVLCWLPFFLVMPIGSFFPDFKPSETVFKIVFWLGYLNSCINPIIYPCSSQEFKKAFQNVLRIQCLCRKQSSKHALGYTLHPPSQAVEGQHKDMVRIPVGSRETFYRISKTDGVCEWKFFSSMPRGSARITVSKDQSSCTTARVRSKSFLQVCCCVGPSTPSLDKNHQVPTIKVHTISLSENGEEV

[2] = target: T2, human α1B‐adrenoceptor (Homo sapiens, UniProt P35368); assay: ^3H‐prazosin whole‐cell radioligand binding, CHO‐α1B cells
T2 construct: expressed in transfected cells; host or cells: CHO-K1
T2 sequence (P35368 1-520): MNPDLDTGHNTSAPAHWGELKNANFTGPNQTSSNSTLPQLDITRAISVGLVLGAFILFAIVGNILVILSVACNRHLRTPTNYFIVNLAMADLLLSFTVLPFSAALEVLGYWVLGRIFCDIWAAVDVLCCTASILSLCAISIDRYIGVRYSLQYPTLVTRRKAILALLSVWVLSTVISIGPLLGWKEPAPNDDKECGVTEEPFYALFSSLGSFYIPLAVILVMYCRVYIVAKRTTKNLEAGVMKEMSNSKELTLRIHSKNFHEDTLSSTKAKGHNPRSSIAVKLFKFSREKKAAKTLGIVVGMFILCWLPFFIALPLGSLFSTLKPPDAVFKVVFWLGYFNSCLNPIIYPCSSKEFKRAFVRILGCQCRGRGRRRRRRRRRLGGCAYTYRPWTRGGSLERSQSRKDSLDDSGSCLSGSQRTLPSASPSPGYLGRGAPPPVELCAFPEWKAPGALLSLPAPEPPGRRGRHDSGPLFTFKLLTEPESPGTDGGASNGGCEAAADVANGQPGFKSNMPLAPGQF

[3] = target: T3, human α1D‐adrenoceptor (full length) (Homo sapiens, UniProt P25100); assay: ^3H‐prazosin whole‐cell radioligand binding, CHO‐α1D cells
T3 construct: human α1D‐adrenoceptor (full length) were used; expressed in transfected cells; host or cells: CHO-K1
T3 sequence (P25100 1-572): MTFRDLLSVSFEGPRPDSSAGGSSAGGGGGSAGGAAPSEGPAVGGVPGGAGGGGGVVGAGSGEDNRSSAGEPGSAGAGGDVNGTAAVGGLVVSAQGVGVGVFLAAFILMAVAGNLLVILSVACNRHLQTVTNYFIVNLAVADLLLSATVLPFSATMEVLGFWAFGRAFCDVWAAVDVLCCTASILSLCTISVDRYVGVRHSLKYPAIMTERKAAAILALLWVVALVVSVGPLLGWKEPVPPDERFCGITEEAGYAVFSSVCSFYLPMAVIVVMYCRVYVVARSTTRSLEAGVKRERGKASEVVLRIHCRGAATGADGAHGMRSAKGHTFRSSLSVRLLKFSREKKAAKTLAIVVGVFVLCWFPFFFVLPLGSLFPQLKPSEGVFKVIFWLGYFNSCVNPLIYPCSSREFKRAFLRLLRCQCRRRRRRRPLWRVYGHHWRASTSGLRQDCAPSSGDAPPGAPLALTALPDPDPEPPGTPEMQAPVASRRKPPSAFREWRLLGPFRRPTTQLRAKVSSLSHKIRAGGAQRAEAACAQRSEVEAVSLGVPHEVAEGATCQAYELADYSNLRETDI

[4] = target: T1, human α1A‐adrenoceptor; assay: Intracellular free calcium mobilization, CHO‐α1A cells; type: cell-based
[5] = target: T2, human α1B‐adrenoceptor; assay: Intracellular free calcium mobilization, CHO‐α1B cells; type: cell-based
[6] = target: T3, human α1D‐adrenoceptor (full length); assay: Intracellular free calcium mobilization, CHO‐α1D cells; type: cell-based; conditions: for Intracellular calcium release % ionomycin: maximal response as % of 10 µM ionomycin
[7] = system: parental CHO cell line without any transfected receptors; assay: Intracellular calcium mobilization, parent CHO cells without transfected receptors; type: cell-based, Chinese hamster; conditions: Cricetulus griseus, read-out: Intracellular calcium release % ionomycin
[8] = target: T1, human α1A‐adrenoceptor; assay: ERK1/2‐phosphorylation (Surefire Alphascreen), CHO‐α1A cells; type: cell-based
[9] = target: T2, human α1B‐adrenoceptor; assay: ERK1/2‐phosphorylation (Surefire Alphascreen), CHO‐α1B cells; type: cell-based
[10] = target: T3, human α1D‐adrenoceptor (full length); assay: ERK1/2‐phosphorylation (Surefire Alphascreen), CHO‐α1D cells; type: cell-based
[11] = system: parental CHO cell line without any transfected receptors; assay: ERK1/2‐phosphorylation, parent CHO cells without transfected receptors; type: cell-based, Chinese hamster
[12] = target: T1, human α1A‐adrenoceptor; assay: ^3H‐cAMP accumulation, CHO‐α1A cells; type: cell-based; conditions: CHO‐α1A cells; % of 10 µM forskolin response
[13] = system: parental CHO cell line without any transfected receptors; assay: Forskolin‐stimulated cAMP accumulation, parent CHO cells without transfected receptors; type: cell-based, Chinese hamster; conditions: for cAMP accumulation (in presence of forskolin) % forskolin-stim cAMP at 100μM: CHO cells without transfected receptors, response at 100μM only, EC50 not obtainable, % of forskolin-stimulated cAMP
[14] = target: T2, human α1B‐adrenoceptor; assay: ^3H‐cAMP accumulation, CHO‐α1B cells; type: cell-based; conditions: CHO‐α1B cells; % forskolin maximum response
[15] = CHO cells without transfected receptors, response at maximum concentration used (c2), as % of ionomycin (10μM) response, mean ± s.e.m.
[16] = CHO‐α1D cells, maximal response as % of PDBu
[17] = CHO cells without transfected receptors, maximal response as % of PDBu (10μM) response, mean ± s.e.m.
[18] = 3H‐prazosin binding Log KD, CHO‐α1D cells, whole‐cell binding (from Table 1), log values given negative
[19] = CHO‐α1D cells, given as log KD (negative), mean ± SEM, 'early plateau' = specific binding not fully inhibited
[20] = CHO‐α1D cells, log values given negative

## Cc1cccc(C)c1N=C1NCCCS1 [Xylazine]
[1]
  Affinity selectivity ratio α1A vs α1B: 18.2 fold
  Kd: 33100 nM
[2]
  Kd: 603000 nM
[3]
  Affinity selectivity ratio α1A vs α1D: 1.2 fold
  Affinity selectivity ratio α1B vs α1D: 21.9 fold
  Kd: 27500 nM
[4]
  EC50: 1200 nM
  Intracellular calcium release % ionomycin: 45.1 ± 2.2%
  Log efficacy ratio KD /EC50: 1.44
[5]
  EC50: 4680 nM
  Intracellular calcium release % ionomycin: 30.4 ± 3.9%
  Log efficacy ratio KD /EC50: 2.11
[6]
  Intracellular calcium release % Ionomycin at 100 µM: 3.8 ± 0.8%
[7]; CHO
  Emax: 2.3 ± 0.3%
[8]
  EC50: 2040 nM
  ERK1/2‐phosphorylation % PDBu: 78.6 ± 5.8%
[9]
  EC50: 6760 nM
  ERK1/2‐phosphorylation % PDBu: 26.4 ± 5.8%
[10]
  ERK1/2‐phosphorylation % PDBu: No response
  ERK1/2‐phosphorylation Log EC50: No response
[11]
  ERK1/2-phosphorylation % PDBu: No response
  ERK1/2-phosphorylation Log EC50: No response

## O=C1CC2(CCCC2)CC(=O)N1CCCCN1CCN(c2ncccn2)CC1 [Buspirone]
[4]; CHO‐α1A cells, maximal response as % of 10 µM ionomycin
  Intracellular calcium release % ionomycin: 46.7 ± 3.0%
[5]; CHO‐α1B cells, maximal response as % of 10 µM ionomycin response
  Intracellular calcium release % ionomycin: 47.8 ± 3.2%
[6]; CHO‐α1D cells
  Intracellular calcium release % ionomycin: 9.0 ± 1.5%
[7]; [15]
  Emax: 3.1 ± 2.3%
[8]; CHO‐α1A cells, % of 10 µM PDBu, ^a bi‐phasic: initial stimulatory part
  ERK1/2‐phosphorylation % PDBu: 47.3 ± 10.6%
[9]; CHO‐α1B cells, maximal response as % PDBu response, for bi‐phasic responses the initial stimulatory part
  ERK1/2‐phosphorylation % PDBu: 47.2 ± 8.6%
[10]; [16]
  ERK1/2‐phosphorylation % PDBu: 11.3 ± 2.5%
[11]; [17]
  ERK1/2-phosphorylation % PDBu: No response
[12]
  cAMP accumulation % forskolin: 3.3 ± 0.06%
[13]
  cAMP accumulation (in presence of forskolin) % forskolin-stim cAMP at 100μM: 113.6 ± 5.2%

## OCc1cc(C(O)CNCCCCCCOCCCCc2ccccc2)ccc1O (centres unmarked) [Salmeterol]
[1]
  Affinity selectivity ratio α1A vs α1B: 9.5 fold
  Kd: 776 nM
[2]; CHO‐α1B cells, given as log KD (negative), mean ± SEM
  Kd: 7410 nM
[2]; Log KD, ^3H‐prazosin binding, CHO‐α1B cells, whole‐cell binding (from Table 1), given as log KD (negative numbers)
  Kd: 7410 nM
[3]
  Affinity selectivity ratio α1B vs α1D: 4.4 fold
[3]; [18]
  Kd: 1700 nM
[3]; [19]
  Kd: 1700 nM
[4]
  Intracellular calcium release % ionomycin at 10 µM: 28.2 ± 2.7%
[5]; CHO‐α1B cells, response at 10 µM ligand (no EC50 given), % of ionomycin response
  Intracellular calcium release % ionomycin at 10 µM: 15.2 ± 4.0%
[6]; [20]
  Intracellular calcium release Log EC50: No response
[6]; CHO‐α1D cells
  Intracellular calcium release % ionomycin: No response
[7]; [15]
  Emax: 3.2 ± 1.4%
[10]; [20]
  ERK1/2‐phosphorylation Log EC50: No response
[10]; [16]
  ERK1/2‐phosphorylation % PDBu: No response
[11]
  ERK1/2-phosphorylation Log EC50: No response
[11]; [17]
  ERK1/2-phosphorylation % PDBu: No response

## CC(CCc1ccccc1)NCC(O)c1ccc(O)c(C(N)=O)c1 (centres unmarked) [Labetolol]
[4]
  Intracellular calcium release % ionomycin: 36.9 ± 3.7%
[5]
  Intracellular calcium release % Ionomycin at 100 µM: 2.5 ± 1.2%
[6]
  Intracellular calcium release % Ionomycin at 100 µM: 8.1 ± 1.6%
[7]; [15]
  Emax: 10.3 ± 3.1%
[8]
  ERK1/2‐phosphorylation % PDBu: 71.3 ± 5.2%
[9]
  ERK1/2‐phosphorylation % PDBu: 22.9 ± 6.3%
[10]
  ERK1/2‐phosphorylation % PDBu at 100 µM: 36.5 ± 5.2 ^a %
[11]; Cricetulus griseus, CHO, read-out: ERK1/2-phosphorylation Log EC50 (converted)
  EC50: 2400 nM
[11]; Cricetulus griseus, CHO cells without transfected receptors, maximal response as % of PDBu (10μM) response, mean ± s.e.m., read-out: ERK1/2-phosphorylation % PDBu
  Emax: 25.9 ± 3.4%
[11]; untransfected cells
  ERK1/2‐phosphorylation response in parent CHO cells: stimulated ERK1/2‐phosphorylation responses
[12]
  cAMP accumulation % forskolin: 4.5 ± 0.6%
[14]
  cAMP accumulation % forskolin: No response
[13]
  cAMP accumulation (in presence of forskolin) Log EC50: No response

## Cc1cccc(Cc2c[nH]cn2)c1C [Detomidine]
[3]; [18]
  Kd: 977 nM
[3]; [19]
  Kd: 977 nM
[7]; [15]
  Emax: 4.3 ± 1.7%
[8]
  ERK1/2‐phosphorylation % PDBu: 84.2 ± 3.8%
[9]
  ERK1/2‐phosphorylation % PDBu: 31.5 ± 5.4%
[10]
  ERK1/2‐phosphorylation % PDBu at 100 µM: 12.3 ± 2.4%
[11]; Cricetulus griseus, CHO, read-out: ERK1/2-phosphorylation % PDBu at 100μM
  Emax at 100 µM: 6.1 ± 4%
[12]
  cAMP accumulation % forskolin: 17.3 ± 1.9%
[14]
  cAMP accumulation % forskolin: 2.8 ± 0.6%
[13]
  cAMP accumulation (in presence of forskolin) % forskolin-stim cAMP at 100μM: 83.2 ± 4.9%
